Experimental findings from US8569316B2, “Pyrimido [5,4-D] pyrimidine derivatives for the inhibition of tyrosine kinases” (Boehringer Ingelheim International GmbH, priority 2009, dated 2013) are described below.

As usually defined, the IC50 is the concentration that gives 50% inhibition. Lower therefore signals greater potency in that assay.

The target of this test is B-Raf (V600E)-kinase (Homo sapiens (Human), UniProt P15056, V600E). The test can be described thus: Kinase test B-Raf (V600E). In kind it is biochemical. The settings on record: 250 μM ATP, biotinylated MEK1 substrate. The procedure:
In a dilution series 10 μL of test substance solution are placed in a multiwell plate. The dilution series is selected so that generally a range of concentrations of 2 μM to 0.128 nM or 0.017 nM is covered. If necessary the initial concentration of 2 μM is changed to 50 μM, 10 μM or 0.4 μM or 0.2857 μM and further dilution is carried out accordingly. The final concentration of DMSO is 5%. 10 μL of the B-Raf (V600E)-kinase solution are pipetted in (containing 0.5 ng B-Raf (V600E)-kinase in 20 mM Tris-HCl pH 7.5, 0.1 mM EDTA, 0.1 mM EGTA, 0.286 mM sodium orthovanadate, 10% glycerol, 1 mg/mL bovine serum albumin, 1 mM dithiothreitol) and the mixture is incubated for 1 h at RT under with shaking. The kinase reaction is started by the addition of 20 μL ATP solution [final concentration: 250 μM ATP, 30 mM Tris-HCl pH 7.5, 0.02% Brij, 0.2 mM sodium orthovanadate, 10 mM magnesium acetate, phosphatase cocktail (Sigma, #P2850, dilution recommended by the manufacturer), 0.1 mM EGTA] and 10 μL MEK1 solution [containing 50 ng biotinylated MEK1 (prepared from purified MEK1 according to standard procedure, e.g. with EZ-Link Sulpho-NHS-LC-Biotin reagent, Pierce, #21335) in 50 mM Hepes pH 7.5, 150 mM NaCl, 10% glycerol, 0.02% Brij-35, 0.2 mM PMSF, 0.2 mM benzamidine] and carried out for 60 min at RT with constant shaking. The reaction is stopped by the addition of 12 μL of a 100 mM EDTA solution and incubation is continued for a further 5 min. 55 μL of the reaction solution are transferred into a streptavidin-coated plate (e.g. Streptawell HighBond, Roche, #11989685001) and shaken gently for 1 h at RT, in order to bind biotinylated MEK1 to the plate. After elimination of the liquid the plate is washed five times with 200 μL of 1×PBS and 100 μL solution of primary antibody plus europium-labelled secondary antibody [Anti Phospho-MEK (Ser217/221), Cell Signaling, #9121 and Eu-N1 labeled goat-anti-rabbit antibody, Perkin Elmer, #AD0105], the primary antibody is diluted 1:2000 and the secondary antibody is diluted to 0.4-0.5 μg/mL in Delfia Assay Buffer (Perkin Elmer, #1244-111). After 1 h shaking at RT the solution is poured away and washed five times with 200 μL Delfia Wash Buffer (Perkin Elmer, #4010-0010/#1244-114). After the addition of 200 μL Enhancement Solution (Perkin Elmer, #4001-0010/#1244-105) the mixture is shaken for 10 min at RT and then measured in a Wallac Victor using the program “Delfia Time Resolved Fluorescence (Europium)”. IC50 values are obtained from these dosage-activity curves using a software program (GraphPadPrizm).

Sequence of B-Raf (V600E)-kinase (P15056 whole entry V600E): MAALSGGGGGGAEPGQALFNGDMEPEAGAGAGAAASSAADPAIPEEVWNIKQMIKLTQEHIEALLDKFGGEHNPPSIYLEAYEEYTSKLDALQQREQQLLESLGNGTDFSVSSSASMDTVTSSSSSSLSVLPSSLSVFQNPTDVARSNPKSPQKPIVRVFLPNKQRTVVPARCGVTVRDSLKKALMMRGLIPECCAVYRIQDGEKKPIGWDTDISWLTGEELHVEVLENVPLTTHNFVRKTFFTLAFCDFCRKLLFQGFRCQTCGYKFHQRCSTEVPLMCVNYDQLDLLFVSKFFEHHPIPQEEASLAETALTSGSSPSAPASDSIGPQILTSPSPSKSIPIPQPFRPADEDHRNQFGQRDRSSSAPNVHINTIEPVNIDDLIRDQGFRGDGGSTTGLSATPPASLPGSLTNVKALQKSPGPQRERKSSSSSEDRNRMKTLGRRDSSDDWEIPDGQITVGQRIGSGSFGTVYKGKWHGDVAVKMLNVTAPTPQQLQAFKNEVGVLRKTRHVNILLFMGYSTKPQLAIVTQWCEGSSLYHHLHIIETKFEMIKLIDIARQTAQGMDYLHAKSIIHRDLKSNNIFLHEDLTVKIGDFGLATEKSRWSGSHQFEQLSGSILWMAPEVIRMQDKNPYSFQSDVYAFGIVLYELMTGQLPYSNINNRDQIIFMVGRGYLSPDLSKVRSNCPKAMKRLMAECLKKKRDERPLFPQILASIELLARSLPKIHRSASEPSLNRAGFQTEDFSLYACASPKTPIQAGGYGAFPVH

On to `COc1ccc(NC(=O)c2ccc(C)c(Nc3ncnc4cnc(N5CCOCC5)cc34)c2)cc1C(F)(F)F` [I-1], for which inhibition was half-maximal at 106 nM (IC50).

Compound `COc1ccc(NC(=O)c2ccc(C)c(Nc3ncnc4cnc(N5CCN(C)CC5)cc34)c2)cc1C(F)(F)F` [I-2] gave a concentration for half-maximal inhibition (IC50) of 224 nM. The compound `COc1ccc(NC(=O)c2ccc(C)c(Nc3ncnc4cnc(N5CCCC5)cc34)c2)cc1C(F)(F)F` [I-3] registered an IC50 of 316 nM.

`Cc1ccc(C(=O)N2CCOCC2)cc1Nc1ncnc2cnc(N3CCOCC3)cc12` [I-4] had an IC50 above 1400 nM. Compound `COc1ccc(NC(=O)c2ccc(C)c(Nc3ncnc4ccc(N5CCOCC5)nc34)c2)cc1C(F)(F)F` [III-1] gave an IC50 of 11 nM. With `Cc1ccc(C(=O)Nc2cc(C(C)(C)C)on2)cc1Nc1ncnc2ccc(N3CCOCC3)nc12` [III-2] the figure was 32 nM. On to `Cc1ccc(C(=O)Nc2cccc(C(C)(C)C#N)c2)cc1Nc1ncnc2ccc(N3CCOCC3)nc12` [III-3], for which the IC50 was 7 nM. Compound `Cc1ccc(C(=O)n2nc(C(C)(C)C)cc2N)cc1Nc1ncnc2ccc(N3CCOCC3)nc12` [III-4] showed an IC50 of 2060 nM. Against the preceding compound, the IC50 is about 290-fold higher. Compound `Cc1ccc(C(=O)Nc2cc(C(C)(C)C)n[nH]2)cc1Nc1ncnc2ccc(N3CCOCC3)nc12` [III-5] returned an IC50 of 7 nM. In the case of `Cc1ccc(C(=O)Nc2cc(C(C)(C)C)nn2C)cc1Nc1ncnc2ccc(N3CCOCC3)nc12` [III-6], the IC50 stood at 15 nM. Compared with the last compound, the IC50 is about 2.1-fold higher. As for `Cc1ccc(C(=O)Nc2cc(N3CCN(C)CC3)cc(C(F)(F)F)c2)cc1Nc1ncnc2ccc(N3CCOCC3)nc12` [III-7], the IC50 amounted to 4 nM. `Cc1ccc(C(=O)Nc2cc(N3CCCN(C)CC3)cc(C(F)(F)F)c2)cc1Nc1ncnc2ccc(N3CCOCC3)nc12` [III-8] displayed an IC50 of 5 nM.

Turning to `Cc1ccc(C(=O)Nc2cc(CN3CCCC3)cc(C(F)(F)F)c2)cc1Nc1ncnc2ccc(N3CCOCC3)nc12` [III-9], the 50% inhibitory concentration (IC50) is 4 nM. The IC50 values of the last two compounds are within 1.5-fold of each other. In turn, `Cc1ccc(C(=O)Nc2cc(C(C)(C)C)on2)cc1Nc1ncnc2ccc(N3CCN(C)CC3)nc12` [III-10] displayed an IC50 of 12 nM.

The compound `COCCN1CCN(c2ccc3ncnc(Nc4cc(C(=O)Nc5cc(C(C)(C)C)on5)ccc4C)c3n2)CC1` [III-11] gave an IC50 of 35 nM. Against the preceding compound, the IC50 is about 2.9-fold higher.

As to `Cc1ccc(C(=O)Nc2cc(C(C)(C)C)on2)cc1Nc1ncnc2ccc(N3CCN(CC4CCN(C)CC4)CC3)nc12` [III-12], the IC50 was 12 nM. `COc1ccc(NC(=O)c2ccc(C)c(Nc3ncnc4ccc(N5CCN(C)CC5)nc34)c2)cc1C(F)(F)F` [III-13] registered an IC50 of 57 nM. The compound `COCCN1CCN(c2ccc3ncnc(Nc4cc(C(=O)Nc5ccc(OC)c(C(F)(F)F)c5)ccc4C)c3n2)CC1` [III-14] yielded an IC50 of 140 nM.

For the compound `COc1ccc(NC(=O)c2ccc(C)c(Nc3ncnc4ccc(N5CCN(CC6CCN(C)CC6)CC5)nc34)c2)cc1C(F)(F)F` [III-15], the half-inhibitory concentration (IC50) is 26 nM.

`COc1ccc(NC(=O)c2ccc(C)c(Nc3ncnc4ccc(N(C)C)nc34)c2)cc1C(F)(F)F` [III-16] had an IC50 of 44 nM.

The compound `Cc1ccc(C(=O)Nc2cc(C(C)(C)C)on2)cc1Nc1ncnc2ccc(N(C)C)nc12` [III-17] showed an IC50 of 9 nM. This IC50 lies about 4.9-fold lower than the previous one.

The compound `COc1c(NC(=O)c2ccc(C)c(Nc3ncnc4ccc(N5CCN(C)CC5)nc34)c2)cc(C(C)(C)C)cc1NS(C)(=O)=O` [III-18] registered an IC50 of 225 nM. With `COCCN1CCN(c2ccc3ncnc(Nc4cc(C(=O)Nc5cc(C(C)(C)C)cc(NS(C)(=O)=O)c5OC)ccc4C)c3n2)CC1` [III-19] the figure was 476 nM; with `COc1c(NC(=O)c2ccc(C)c(Nc3ncnc4ccc(N(C)C5CCOC5)nc34)c2)cc(C(C)(C)C)cc1NS(C)(=O)=O` (centres unmarked) [III-20], 24 nM. `COc1c(NC(=O)c2ccc(C)c(Nc3ncnc4ccc(NC5CCOC5)nc34)c2)cc(C(C)(C)C)cc1NS(C)(=O)=O` (centres unmarked) [III-21]: the midpoint of inhibition, the IC50, lay at 30 nM. This IC50 and that of the compound before are within 1.5-fold of each other.

For `COc1c(NC(=O)c2ccc(C)c(Nc3ncnc4ccc(N5CC[C@@H](F)C5)nc34)c2)cc(C(C)(C)C)cc1NS(C)(=O)=O` [III-22], the IC50 is 25 nM. `CCN1CCN(c2ccc3ncnc(Nc4cc(C(=O)Nc5cc(C(C)(C)C)cc(NS(C)(=O)=O)c5OC)ccc4C)c3n2)CC1` [III-23] registered a half-inhibitory concentration (IC50) of 508 nM.

On to `COc1c(NC(=O)c2ccc(C)c(Nc3ncnc4ccc(N5CCOCC5)nc34)c2)cc(C(C)(C)C)cc1NS(C)(=O)=O` [III-24], for which the IC50 amounted to 50 nM. Compound `COc1c(NC(=O)c2ccc(C)c(Nc3ncnc4ccc(N5CCN(CCN6CCOCC6)CC5)nc34)c2)cc(C(C)(C)C)cc1NS(C)(=O)=O` [III-25] displayed an IC50 of 638 nM. For `COc1c(NC(=O)c2ccc(C)c(Nc3ncnc4ccc(N5CCC(N6CCOCC6)C5)nc34)c2)cc(C(C)(C)C)cc1NS(C)(=O)=O` (centres unmarked) [III-26], the IC50 was 1460 nM. In the case of `COc1c(NC(=O)c2ccc(C)c(Nc3ncnc4ccc(C5=CCNCC5)nc34)c2)cc(C(C)(C)C)cc1NS(C)(=O)=O` [III-27] it was 101 nM; in that of `COc1c(NC(=O)c2ccc(C)c(Nc3ncnc4ccc(C)nc34)c2)cc(C(C)(C)C)cc1NS(C)(=O)=O` [III-28], 431 nM. In turn, `COc1c(NC(=O)c2ccc(C)c(Nc3ncnc4ccc(C5=CCN(C(C)C)CC5)nc34)c2)cc(C(C)(C)C)cc1NS(C)(=O)=O` [III-29] returned an IC50 of 295 nM. In the case of `COc1c(NC(=O)c2ccc(C)c(Nc3ncnc4ccc(C5=CCN(C)CC5)nc34)c2)cc(C(C)(C)C)cc1NS(C)(=O)=O` [III-30], the concentration for half-maximal inhibition (IC50) turned out to be 344 nM. This IC50 and that of the compound before are within 1.5-fold of each other. Take `COc1c(NC(=O)c2ccc(C)c(Nc3ncnc4ccc(C5CCNCC5)nc34)c2)cc(C(C)(C)C)cc1NS(C)(=O)=O` [III-31]: the IC50 was found to be 70 nM. Take `COc1c(NC(=O)c2ccc(C)c(Nc3ncnc4ccc(C5CCN(C)CC5)nc34)c2)cc(C(C)(C)C)cc1NS(C)(=O)=O` [III-32]: the IC50 worked out at 151 nM.

`CCN1CCC(c2ccc3ncnc(Nc4cc(C(=O)Nc5cc(C(C)(C)C)cc(NS(C)(=O)=O)c5OC)ccc4C)c3n2)CC1` [III-33] gave a half-inhibitory concentration (IC50) of 185 nM. The IC50 values of the last two compounds are within 1.5-fold of each other.

For `COc1c(NC(=O)c2ccc(C)c(Nc3ncnc4ccc(C5CCN(C(C)C)CC5)nc34)c2)cc(C(C)(C)C)cc1NS(C)(=O)=O` [III-34], 257 nM corresponded to half-maximal inhibition (IC50).

Compound `COc1c(NC(=O)c2ccc(C)c(Nc3ncnc4ccc(C5CCN(CC6CC6)CC5)nc34)c2)cc(C(C)(C)C)cc1NS(C)(=O)=O` [III-35] showed an IC50 of 288 nM. With `COCCN1CCC(c2ccc3ncnc(Nc4cc(C(=O)Nc5cc(C(C)(C)C)cc(NS(C)(=O)=O)c5OC)ccc4C)c3n2)CC1` [III-36], the IC50 is 443 nM. With `COc1c(NC(=O)c2ccc(C)c(Nc3ncnc4ccc(CC5CCNCC5)nc34)c2)cc(C(C)(C)C)cc1NS(C)(=O)=O` [III-37], half-maximal inhibition (IC50) required 170 nM. `COc1c(NC(=O)c2ccc(C)c(Nc3ncnc4ccc(C5=CCNC5)nc34)c2)cc(C(C)(C)C)cc1NS(C)(=O)=O` [III-38] returned an IC50 of 282 nM.

`COc1c(NC(=O)c2ccc(C)c(Nc3ncnc4ccc(C5CCNC5)nc34)c2)cc(C(C)(C)C)cc1NS(C)(=O)=O` (centres unmarked) [III-39] displayed an IC50 of 151 nM. The compound `COc1c(NC(=O)c2ccc(C)c(Nc3ncnc4ccc(C5CCN(C)C5)nc34)c2)cc(C(C)(C)C)cc1NS(C)(=O)=O` (centres unmarked) [III-40] showed an IC50 of 286 nM. In the case of `COCCN1CCC(c2ccc3ncnc(Nc4cc(C(=O)Nc5cc(C(C)(C)C)cc(NS(C)(=O)=O)c5OC)ccc4C)c3n2)C1` (centres unmarked) [III-41], it took 315 nM to reach half-maximal inhibition (IC50). As for `COc1c(NC(=O)c2ccc(C)c(Nc3ncnc4ccc(C5CCCNC5)nc34)c2)cc(C(C)(C)C)cc1NS(C)(=O)=O` (centres unmarked) [III-42], the IC50 amounted to 229 nM. `COc1c(NC(=O)c2ccc(C)c(Nc3ncnc4ccc(CC5CNCCOC5)nc34)c2)cc(C(C)(C)C)cc1NS(C)(=O)=O` (centres unmarked) [III-43] registered an IC50 of 213 nM. This IC50 and that of the compound before are within 1.5-fold of each other.

For `COc1c(NC(=O)c2ccc(C)c(Nc3ncnc4ccc(CC5CCN(C)CC5)nc34)c2)cc(C(C)(C)C)cc1NS(C)(=O)=O` [III-44], half-maximal inhibition (IC50) required 364 nM. This IC50 is about 1.7-fold higher than that of the compound before. As for `CCN1CCC(Cc2ccc3ncnc(Nc4cc(C(=O)Nc5cc(C(C)(C)C)cc(NS(C)(=O)=O)c5OC)ccc4C)c3n2)CC1` [III-45], half-maximal inhibition (IC50) was put at 530 nM. The IC50 values of the last two compounds are within 1.5-fold of each other.

`COc1c(NC(=O)c2ccc(C)c(Nc3ncnc4ccc(CC5CCN(C(C)C)CC5)nc34)c2)cc(C(C)(C)C)cc1NS(C)(=O)=O` [III-46] had an IC50 of 553 nM.
